Each cell line was assayed with COC1=CC=C(C=C1)COC2=C(C=C(C=C2)CC3=CN=C(N=C3N)N)OC [GW-2580] + O=C(c1cc(Cc2n[nH]c(=O)c3ccccc23)ccc1F)N1CCN(C(=O)C2CC2)CC1 [Olaparib] (partner 8 µM) (assay: relative viability (nuclei count vs DMSO), 5 days (fraction); higher = more cells survive). Settings: first compound 0.08 µM.
In short: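 Medians of duplicate plates are given as relative viability. That measure is the nuclei count in treated wells divided by the count in vehicle wells. Counts were taken on 4× images of lung cancer cell lines in 1536-well plates, 5 days after pin-tool dosing the day after seeding with one drug alone or a fixed anchor-drug dose plus five library-drug doses (not always all listed) in √10 steps.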

Row | Cell Line | relative viability
1 | NCI-H2342 | 0.397
2 | NCI-H727 | 0.637
3 | NCI-H1650 | 0.704
4 | EBC-1 | 0.837
5 | NCI-H1703 | 0.418
6 | NCI-H1993 | 0.985
7 | SW 1573 | 0.477
8 | NCI-H838 | 0.906
9 | LCLC-103H | 0.799
10 | NCI-H520 | 0.3
11 | NCI-H2126 | 1.02
12 | EMC-BAC-2 | 0.477
13 | NCI-H2085 | 0.741
14 | Calu-6 | 0.657
15 | HCC-366 | 0.379
16 | NCI-H1666 | 0.758
17 | NCI-H596 | 0.8
18 | LK-2 | 0.625
19 | NCI-H2087 | 0.668
20 | NCI-H1648 | 1.34
21 | SK-MES-1 | 0.79

Row | Cell Line | relative viability
22 | H3255 | 0.618
23 | COR-L23 | 0.422
24 | COR-L 105 | 0.658
25 | IA-LM | 0.844
26 | LOU-NH91 | 0.916
27 | NCI-H2170 | 0.616
28 | A549 | 0.396
29 | NCI-H522 | 0.623
30 | SW 900 | 0.864
31 | NCI-H2009 | 0.752
32 | NCI-H661 | 0.807
33 | SK-LU-1 | 0.431
34 | NCI-H1395 | 0.426
35 | NCI-H1299 | 1.05
36 | CAL-12T | 0.743
37 | NCI-H2228 | 0.667
38 | NCI-H2023 | 0.541
39 | NCI-H1793 | 0.892
40 | NCI-H1944 | 0.427
41 | NCI-H358 | 0.652

Same assay, conditions: first compound 0.8 µM

Row | Cell Line | relative viability
42 | NCI-H2342 | 0.59
43 | NCI-H727 | 0.63
44 | NCI-H1650 | 0.951
45 | EBC-1 | 0.734
46 | NCI-H1703 | 0.43
47 | NCI-H1993 | 1.07
48 | SW 1573 | 0.474
49 | NCI-H838 | 0.938
50 | LCLC-103H | 0.895
51 | NCI-H520 | 0.416
52 | NCI-H2126 | 0.942
53 | EMC-BAC-2 | 0.514
54 | NCI-H2085 | 0.784
55 | Calu-6 | 0.663
56 | HCC-366 | 0.526
57 | NCI-H1666 | 0.757
58 | NCI-H596 | 0.746
59 | LK-2 | 0.732
60 | NCI-H2087 | 0.934
61 | SK-MES-1 | 0.795

Row | Cell Line | relative viability
62 | H3255 | 0.607
63 | COR-L23 | 0.375
64 | COR-L 105 | 0.633
65 | IA-LM | 1
66 | LOU-NH91 | 0.946
67 | NCI-H2170 | 0.702
68 | A549 | 0.527
69 | NCI-H522 | 0.608
70 | SW 900 | 1.03
71 | NCI-H2009 | 0.698
72 | NCI-H661 | 0.813
73 | SK-LU-1 | 0.497
74 | NCI-H1395 | 0.427
75 | NCI-H1299 | 0.965
76 | CAL-12T | 0.817
77 | NCI-H2228 | 0.828
78 | NCI-H2023 | 0.589
79 | NCI-H1793 | 1.02
80 | NCI-H1944 | 0.432
81 | NCI-H358 | 0.658

Same assay, conditions: first compound 2.53 µM

Row | Cell Line | relative viability
82 | NCI-H2342 | 0.382
83 | NCI-H727 | 0.699
84 | NCI-H1650 | 0.719
85 | EBC-1 | 0.664
86 | NCI-H1703 | 0.412
87 | NCI-H1993 | 1.06
88 | SW 1573 | 0.492
89 | NCI-H838 | 0.838
90 | LCLC-103H | 0.733
91 | NCI-H520 | 0.337
92 | NCI-H2126 | 0.793
93 | EMC-BAC-2 | 0.429
94 | NCI-H2085 | 0.84
95 | Calu-6 | 0.559
96 | HCC-366 | 0.387
97 | NCI-H1666 | 0.794
98 | NCI-H596 | 0.715
99 | LK-2 | 0.612
100 | NCI-H2087 | 0.608
101 | NCI-H1648 | 0.666
102 | SK-MES-1 | 0.603

Row | Cell Line | relative viability
103 | H3255 | 0.566
104 | COR-L23 | 0.294
105 | COR-L 105 | 0.909
106 | IA-LM | 0.853
107 | LOU-NH91 | 0.897
108 | NCI-H2170 | 0.569
109 | A549 | 0.267
110 | NCI-H522 | 0.611
111 | SW 900 | 0.994
112 | NCI-H2009 | 0.918
113 | NCI-H661 | 0.722
114 | SK-LU-1 | 0.389
115 | NCI-H1395 | 0.489
116 | NCI-H1299 | 0.922
117 | CAL-12T | 0.726
118 | NCI-H2228 | 0.785
119 | NCI-H2023 | 0.457
120 | NCI-H1793 | 0.822
121 | NCI-H1944 | 0.378
122 | NCI-H358 | 0.635

Same assay, conditions: first compound 8 µM

Row | Cell Line | relative viability
123 | NCI-H2342 | 0.382
124 | NCI-H727 | 0.69
125 | NCI-H1650 | 0.774
126 | EBC-1 | 0.59
127 | NCI-H1703 | 0.363
128 | NCI-H1993 | 1.04
129 | SW 1573 | 0.543
130 | NCI-H838 | 0.94
131 | LCLC-103H | 0.736
132 | NCI-H520 | 0.342
133 | NCI-H2126 | 0.851
134 | EMC-BAC-2 | 0.462
135 | NCI-H2085 | 0.757
136 | Calu-6 | 0.636
137 | HCC-366 | 0.417
138 | NCI-H1666 | 0.737
139 | NCI-H596 | 0.651
140 | LK-2 | 0.775
141 | NCI-H2087 | 0.542
142 | NCI-H1648 | 0.764
143 | SK-MES-1 | 0.777
144 | H3255 | 0.508
145 | COR-L23 | 0.406
146 | COR-L 105 | 0.68
147 | IA-LM | 0.756
148 | LOU-NH91 | 0.98
149 | NCI-H2170 | 0.574
150 | A549 | 0.301

— the supplement of paper PMC10307832
